Results: patent publication US20250136606A1, “MODULATORS OF TRPML, THEIR COMPOSITIONS AND METHODS OF USE” (Caraway Therapeutics, Inc., priority 2021, published 2025)

How the values were obtained:
Format in all cases: cell-based
TRPML3 = target: T1, TRPML3 (Homo sapiens, UniProt Q8TDD5); experiment: Fluorescent TRPML3 assay (performed as for TRPML1, substituting the TRPML3 subtype)
T1 construct: expressed in transfected cells
T1 sequence (Q8TDD5 1-553): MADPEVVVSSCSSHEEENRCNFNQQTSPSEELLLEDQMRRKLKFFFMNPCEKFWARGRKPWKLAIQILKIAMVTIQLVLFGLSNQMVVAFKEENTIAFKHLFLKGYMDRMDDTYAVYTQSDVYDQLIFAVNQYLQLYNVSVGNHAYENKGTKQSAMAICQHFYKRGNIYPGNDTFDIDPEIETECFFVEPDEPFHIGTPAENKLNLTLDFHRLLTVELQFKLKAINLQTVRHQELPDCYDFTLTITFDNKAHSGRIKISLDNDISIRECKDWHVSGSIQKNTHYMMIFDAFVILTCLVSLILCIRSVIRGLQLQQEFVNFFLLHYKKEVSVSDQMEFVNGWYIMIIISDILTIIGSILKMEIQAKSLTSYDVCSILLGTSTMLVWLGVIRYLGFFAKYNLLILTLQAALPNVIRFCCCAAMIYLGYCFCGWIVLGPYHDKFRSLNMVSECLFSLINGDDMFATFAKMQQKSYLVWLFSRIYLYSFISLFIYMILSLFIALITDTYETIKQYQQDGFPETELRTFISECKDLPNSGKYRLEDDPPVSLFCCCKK
Procedure, shortened: (§1)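 HEK-293 Trex, dox-induced (0.5 ug/mL), mutated for surface expression. Fluo4-AM 1 micromolar load ~60 min, dark; buffer modified Ringer's, 10 mM Ca. Cpds 20 micromolar–6 nanomolar final, half-log, n=3. Read ex 480/em 540; % activity vs controls; EC50 nonlinear fit.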

TRPML2 = target: T2, TRPML2 (Homo sapiens, UniProt Q8IZK6); experiment: Fluorescent TRPML2 assay (performed as for TRPML1, substituting the TRPML2 subtype)
T2 construct: expressed in transfected cells
T2 sequence (Q8IZK6 1-566): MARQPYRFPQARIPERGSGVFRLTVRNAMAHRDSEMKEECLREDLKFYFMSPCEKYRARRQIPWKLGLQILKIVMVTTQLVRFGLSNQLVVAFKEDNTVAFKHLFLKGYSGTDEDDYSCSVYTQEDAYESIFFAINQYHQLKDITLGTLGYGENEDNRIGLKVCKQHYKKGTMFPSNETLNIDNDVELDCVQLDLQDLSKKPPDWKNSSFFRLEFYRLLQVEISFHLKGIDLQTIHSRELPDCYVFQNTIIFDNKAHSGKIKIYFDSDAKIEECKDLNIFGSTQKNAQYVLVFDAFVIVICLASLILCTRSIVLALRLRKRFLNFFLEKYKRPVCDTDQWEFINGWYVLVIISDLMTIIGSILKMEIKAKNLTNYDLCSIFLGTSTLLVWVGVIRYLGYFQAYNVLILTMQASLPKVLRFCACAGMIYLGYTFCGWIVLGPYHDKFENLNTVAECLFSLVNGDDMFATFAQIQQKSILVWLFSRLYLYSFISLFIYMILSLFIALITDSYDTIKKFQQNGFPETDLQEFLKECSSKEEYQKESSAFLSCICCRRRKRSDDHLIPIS
Procedure, shortened: as §1

TRPML1 = TRPML1 (Homo sapiens, UniProt Q9GZU1); experiment: Fluorescent TRPML1 assay (Fluo4-AM calcium fluorescence in doxycycline-induced HEK-293 Trex cells)
Procedure, shortened: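 HEK-293 Trex cells stably expressing surface-directed mutant human TRPML1, induced with 0.5 µg/mL doxycycline overnight, were loaded with 1 µM Fluo4-AM and added to compound (6 nM–20 µM final, half-log steps, triplicate) in Ringer's with 10 mM calcium. Fluorescence ex 480/em 540; EC50 by non-linear regression versus plate controls.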

Chain of TRPML1 (Q9GZU1 whole entry L15A/L16A/L577A/L578A, form open): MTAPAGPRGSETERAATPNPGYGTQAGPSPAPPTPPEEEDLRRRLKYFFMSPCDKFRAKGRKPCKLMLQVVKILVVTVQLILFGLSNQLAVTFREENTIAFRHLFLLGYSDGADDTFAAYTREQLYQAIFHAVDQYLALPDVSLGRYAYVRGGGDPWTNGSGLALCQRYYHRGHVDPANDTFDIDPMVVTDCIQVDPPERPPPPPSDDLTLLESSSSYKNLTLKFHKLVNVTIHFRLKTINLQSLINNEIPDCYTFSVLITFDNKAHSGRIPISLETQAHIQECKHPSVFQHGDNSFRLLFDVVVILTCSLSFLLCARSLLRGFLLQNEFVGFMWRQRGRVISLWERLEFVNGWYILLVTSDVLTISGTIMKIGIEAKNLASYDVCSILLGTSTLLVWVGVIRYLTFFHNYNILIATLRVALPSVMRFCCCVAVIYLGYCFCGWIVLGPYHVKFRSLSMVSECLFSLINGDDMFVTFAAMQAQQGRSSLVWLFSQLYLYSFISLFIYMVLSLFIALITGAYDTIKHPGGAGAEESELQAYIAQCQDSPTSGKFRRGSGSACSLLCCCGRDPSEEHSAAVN

SMILES	EC50 (TRPML3) [nM]	EC50 (TRPML2) [nM]	EC50 (TRPML1) [nM]
Cc1cn(-c2cncc(F)c2)c2ncnc(N3CCN(C(=O)OC(C)(C)C)C[C@@H]3C)c12 [Compound 689, tert-butyl (S)-4-(7-(5-fluoropyridin-3-yl)-5-methyl-7H-pyrrolo[2,3-d]pyrimidin-4-yl)-3-methylpiperazine-1-carboxylate]	100 to 500	100 to 500	< 100
Cc1cn(-c2ccccn2)c2ncnc(N3CCN(C(=O)OC(C)(C)C)C[C@@H]3C)c12 [Compound 690, tert-butyl (S)-3-methyl-4-(5-methyl-7-(pyridin-2-yl)-7H-pyrrolo[2,3-d]pyrimidin-4-yl)piperazine-1-carboxylate]	< 100	500 to 2000	< 100
Cc1cn(-c2ccc(F)cc2)c2ncnc(N3CCN(C(=O)OC(C)(C)C)C[C@@H]3C)c12 [Compound 692, tert-butyl (S)-4-(7-(4-fluorophenyl)-5-methyl-7H-pyrrolo[2,3-d]pyrimidin-4-yl)-3-methylpiperazine-1-carboxylate]	< 100	< 100	< 100
Cc1cn(-c2cc(F)cc(Cl)c2)c2ncnc(N3CCN(C(=O)OC(C)(C)C)C[C@@H]3C)c12 [Compound 693, tert-butyl (S)-4-(7-(3-chloro-5-fluorophenyl)-5-methyl-7H-pyrrolo[2,3-d]pyrimidin-4-yl)-3-methylpiperazine-1-carboxylate]	< 100	100 to 500	< 100
C[C@@H]1CN(c2ncnc3c2c(C(F)F)cn3-c2cccc(F)c2)[C@@H](C)CN1C(=O)OC(C)(C)C [Compound 695, tert-butyl (2R,5S)-4-(5-(difluoromethyl)-7-(3-fluorophenyl)-7H-pyrrolo[2,3-d]pyrimidin-4-yl)-2,5-dimethylpiperazine-1-carboxylate]	< 100	100 to 500	< 100
CCc1cn(-c2cc(C(F)(F)F)ccn2)c2ncnc(N3C[C@@H](C)N(C(=O)OC(C)(C)C)C[C@@H]3C)c12 [Compound 696, tert-butyl (2R,5S)-4-(5-ethyl-7-(4-(trifluoromethyl)pyridin-2-yl)-7H-pyrrolo[2,3-d]pyrimidin-4-yl)-2,5-dimethylpiperazine-1-carboxylate]	< 100	< 100	< 100
CCc1cn(-c2cc(F)ccn2)c2ncnc(N3C[C@@H](C)N(C(=O)OC(C)(C)C)C[C@@H]3C)c12 [Compound 697, tert-butyl (2R,5S)-4-(5-ethyl-7-(4-fluoropyridin-2-yl)-7H-pyrrolo[2,3-d]pyrimidin-4-yl)-2,5-dimethylpiperazine-1-carboxylate]	< 100	< 100	< 100
CC(C)c1cn(-c2cc(F)ccn2)c2ncnc(N3C[C@@H](C)N(C(=O)OC(C)(C)C)C[C@@H]3C)c12 [Compound 698, tert-butyl (2R,5S)-4-(7-(4-fluoropyridin-2-yl)-5-isopropyl-7H-pyrrolo[2,3-d]pyrimidin-4-yl)-2,5-dimethylpiperazine-1-carboxylate]	< 100	100 to 500	< 100
CC(C)c1cn(-c2cc(C(F)(F)F)ccn2)c2ncnc(N3C[C@@H](C)N(C(=O)OC(C)(C)C)C[C@@H]3C)c12 [Compound 699, tert-butyl (2R,5S)-4-(5-isopropyl-7-(4-(trifluoromethyl)pyridin-2-yl)-7H-pyrrolo[2,3-d]pyrimidin-4-yl)-2,5-dimethylpiperazine-1-carboxylate]	< 100	100 to 500	< 100
CC(C)c1cn(-c2cc(C#N)ccn2)c2ncnc(N3C[C@@H](C)N(C(=O)OC(C)(C)C)C[C@@H]3C)c12 [Compound 700, tert-butyl (2R,5S)-4-(7-(4-cyanopyridin-2-yl)-5-isopropyl-7H-pyrrolo[2,3-d]pyrimidin-4-yl)-2,5-dimethylpiperazine-1-carboxylate]	< 100	100 to 500	< 100
